From PubChem BioAssay AID278 (DTP/NCI, 2004)
Several values for one entry are separate records, joined by “and”; a condition that tells them apart may be missing. Equal values may be shown once. Results filed as inconclusive are left out.

System: nude mice, A549 intrarenal xenograft, tumor weight change
Test: NCI In Vivo Anticancer Drug Screen. Data for tumor model A549 Human Adenocarcinoma of Lung with characteristics of Type II Alveolar Epithelial cells (intrarenal inoculation) in NU/NU BALB/C (nude) mice
Details: endpoint: mean tumor weight change, schedule: Q04DX003 (ip), higher = larger tumour
Procedure, shortened: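 Activity is expressed as T/C: the treated-group value over the vehicle-treated control value. The measure was survival or tumor size in mice carrying transplantable tumors.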

[1] = dose: 25.0 mg/kg/injection, vehicle: Klucel (hydroxypropylcellulose) (HPC)
[2] = dose: 50.0 mg/kg/injection, vehicle: saline with Tween-80
[3] = dose: 100.0 mg/kg/injection, vehicle: saline with Tween-80
[4] = dose: 200.0 mg/kg/injection, vehicle: saline with Tween-80
[5] = dose: 150.0 mg/kg/injection, vehicle: saline with Tween-80
[6] = dose: 300.0 mg/kg/injection, vehicle: saline with Tween-80
[7] = dose: 37.5 mg/kg/injection, vehicle: water
[8] = dose: 25.0 mg/kg/injection, vehicle: saline
[9] = dose: 50.0 mg/kg/injection, vehicle: saline
[10] = dose: 12.5 mg/kg/injection, vehicle: saline with Tween-80
[11] = dose: 25.0 mg/kg/injection, vehicle: saline with Tween-80
[12] = dose: 200.0 mg/kg/injection, vehicle: Klucel (hydroxypropylcellulose) (HPC)

Compound: CCC(=O)[O][Bi]([c]1ccccc1)[c]1ccccc1
- T/C (dose: 6.25 mg/kg/injection, vehicle: Klucel (hydroxypropylcellulose) (HPC)): 79 % of control
- T/C (dose: 12.5 mg/kg/injection, vehicle: Klucel (hydroxypropylcellulose) (HPC)): 49 % of control
- T/C [1]: 43 % of control

Compound: Cc1cccc(OCC(O)CN2CC2)c1 (configuration not stated)
- T/C [2]: 82 % of control
- T/C [3]: 46 % of control
- T/C [4]: 81 % of control

Compound: C=CCNC(=O)c1ccccc1SC(C)=O
- T/C (dose: 75.0 mg/kg/injection, vehicle: saline with Tween-80): 104 % of control
- T/C [5]: 94 % of control
- T/C [6]: 96 % of control
- T/C (dose: 450.0 mg/kg/injection, vehicle: saline with Tween-80): 61 % of control

Compound: COc1cc2c(cc1OC)[C@@H]1C(=O)c3ccc4c(c3O[C@@H]1CO2)C[C@H](C(C)C)O4
- T/C (dose: 21.25 mg/kg/injection, vehicle: Klucel (hydroxypropylcellulose) (HPC)): 90 % of control
- T/C (dose: 42.5 mg/kg/injection, vehicle: Klucel (hydroxypropylcellulose) (HPC)): 87 % of control
- T/C (dose: 85.0 mg/kg/injection, vehicle: Klucel (hydroxypropylcellulose) (HPC)): 37 % of control

Compound: CO[C@@H]1C2=CC=CC=C[C@H]2n2c(=O)n(C)c(=O)n21
- T/C [7]: 223 % of control
- T/C (dose: 75.0 mg/kg/injection, vehicle: other): 32 % of control
- T/C (dose: 75.0 mg/kg/injection, vehicle: water): 195 % of control
- T/C (dose: 150.0 mg/kg/injection, vehicle: other): 74 % of control
- T/C (dose: 150.0 mg/kg/injection, vehicle: water): 158 % of control

Compound: CN=NN(C)C(=O)NC
- T/C [8]: 37 % of control
- T/C (dose: 43.2 mg/kg/injection, vehicle: saline): 27 % of control
- T/C [9]: 72 % of control
- T/C (dose: 72.0 mg/kg/injection, vehicle: saline): 28 % of control
- T/C (dose: 100.0 mg/kg/injection, vehicle: saline): 8 % of control
- T/C (dose: 120.0 mg/kg/injection, vehicle: saline): 8 % of control
- T/C (dose: 200.0 mg/kg/injection, vehicle: saline): -34 % of control and -27 % of control

Compound: S=C(N/N=C1/CCCC/C1=N/NC(=S)N1CCOCC1)N1CCOCC1
- T/C (dose: 6.25 mg/kg/injection, vehicle: saline with Tween-80): 71 % of control
- T/C [10]: 27 % of control
- T/C [11]: 37 % of control
- T/C [2]: 82 % of control

Compound: COc1cc2c[n+](C)c3c(c2cc1OC)Cc1cc2c(cc1-3)OCO2
- T/C (dose: 18.75 mg/kg/injection, vehicle: saline with Tween-80): 39 % of control

Compound: CC(=O)C[n+]1ccccc1Sc1ccc(Cl)cc1
- T/C [10]: 107 % of control
- T/C [11]: 80 % of control
- T/C [2]: 93 % of control
- T/C [3]: 79 % of control

Compound: COC(=O)NC1C(C)OC(OC2C/C=C(/C)C3C=CC4C(OC5CC(OC6CC(OC7CC(O)C(O)C(C)O7)C(OC7CC(O)C(OC)C(C)O7)C(C)O6)C(O)C(C)O5)C(C)CC(C)C4C3(C)/C(O)=C3\C(=O)OC4(CC(C)C(CO)=CC4/C=C\2C)C3=O)CC1(C)[N+](=O)[O-] (configuration not stated)
- T/C (dose: 9.38 mg/kg/injection, vehicle: water): 69 % of control
- T/C (dose: 18.75 mg/kg/injection, vehicle: water): 58 % of control
- T/C [7]: 76 % of control

Compound: CC1C(c2ccccc2)OC(N2CCOCC2)C(C)(C)CN1C (configuration not stated)
- T/C [5]: 112 % of control
- T/C [6]: 72 % of control

Compound: CCCCNP1(NCCCC)=NP(NCCCC)(NCCCC)=NP(NCCCC)(NCCCC)=NP(NCCCC)(NCCCC)=N1
- T/C [5]: 111 % of control
- T/C [6]: 44 % of control

Compound: CC(C)(C)NC(C1=CC(C)(C)c2ccccc2C1=O)c1ccccc1 (configuration not stated)
- T/C (dose: 100.0 mg/kg/injection, vehicle: Klucel (hydroxypropylcellulose) (HPC)): 107 % of control
- T/C [12]: 65 % of control

Compound: COc1cc(C)c(C2NC(=O)c3ccccc3N2)cc1C (configuration not stated)
- T/C (dose: 75.0 mg/kg/injection, vehicle: Klucel (hydroxypropylcellulose) (HPC)): 5 % of control
- T/C (dose: 129.6 mg/kg/injection, vehicle: Klucel (hydroxypropylcellulose) (HPC)): 161 % of control
- T/C (dose: 150.0 mg/kg/injection, vehicle: Klucel (hydroxypropylcellulose) (HPC)): 47 % of control
- T/C (dose: 300.0 mg/kg/injection, vehicle: Klucel (hydroxypropylcellulose) (HPC)): 6 % of control
- T/C (dose: 360.0 mg/kg/injection, vehicle: Klucel (hydroxypropylcellulose) (HPC)): 112 % of control
- T/C (dose: 1000.0 mg/kg/injection, vehicle: Klucel (hydroxypropylcellulose) (HPC)): 65 % of control

Compound: c1nnc(NCNc2nncs2)s1
- T/C (dose: 100.0 mg/kg/injection, vehicle: suspension in saline): 61 % of control
- T/C (dose: 144.0 mg/kg/injection, vehicle: Klucel (hydroxypropylcellulose) (HPC)): 36 % of control
- T/C (dose: 200.0 mg/kg/injection, vehicle: suspension in saline): 23 % of control
- T/C (dose: 240.0 mg/kg/injection, vehicle: Klucel (hydroxypropylcellulose) (HPC)): 23 % of control
- T/C (dose: 400.0 mg/kg/injection, vehicle: suspension in saline): 20 % of control

Compound: CC(C)(C)c1ccc(C(=O)N2CCOC23CCCCC3)cc1
- T/C [5]: 55 % of control
- T/C [6]: 28 % of control
- T/C (dose: 600.0 mg/kg/injection, vehicle: saline with Tween-80): 63 % of control
- T/C (dose: 1200.0 mg/kg/injection, vehicle: saline with Tween-80): 42 % of control

Compound: CS(=O)(=O)CS(=O)(=O)OCCF
- T/C (dose: 6.25 mg/kg/injection, vehicle: saline): 40 % of control
- T/C (dose: 12.5 mg/kg/injection, vehicle: saline): 62 % of control
- T/C [8]: 50 % of control
- T/C [9]: 50 % of control

Compound: CNC(=O)N(C)N=NCCCl
- T/C [3]: -19 % of control
- T/C [4]: -66 % of control

Compound: NC(Cc1ccc(N(CCCl)Cc2ccccc2)cc1)C(=O)O (configuration not stated)
- T/C [2]: 74 % of control
- T/C [3]: 32 % of control
- T/C [4]: 38 % of control

Compound: O=C([O][Bi]([c]1ccccc1)[c]1ccccc1)c1ccccc1
- T/C [1]: 83 % of control
- T/C (dose: 50.0 mg/kg/injection, vehicle: Klucel (hydroxypropylcellulose) (HPC)): 76 % of control
- T/C [12]: 73 % of control

Compound: CCOC(=O)/N=[N+](\[O-])c1ccccc1
- T/C [10]: 156 % of control
- T/C [11]: 245 % of control
- T/C [2]: 217 % of control

Compound: CCOC(=O)C1=C(C)O/C(=C/c2cccc(Cl)c2)C1=O
- T/C [11]: 48 % of control
- T/C [2]: 51 % of control
- T/C [3]: 77 % of control
- T/C [4]: 18 % of control

Compound: CC(=O)C[n+]1ccc(C)cc1Sc1ccccc1C
- T/C [2]: 112 % of control
- T/C [3]: 44 % of control

Compound: COC1=C(C)C(=O)C2=C(C1=O)C(CO)N1C(C#N)C3CC4C(C1C2N1CCOC41)N3C (configuration not stated)
- T/C (dose: 1.25 mg/kg/injection, vehicle: saline + alcohol): 117 % of control
- T/C (dose: 2.5 mg/kg/injection, vehicle: saline + alcohol): 45 % of control

Compound: O=C(O)[C@H](Cc1ccccc1)N1C(=O)c2ccccc2C1=O
- T/C (dose: 150.0 mg/kg/injection, vehicle: DMSO): 94 % of control
- T/C (dose: 300.0 mg/kg/injection, vehicle: DMSO): 77 % of control
- T/C (dose: 600.0 mg/kg/injection, vehicle: DMSO): 47 % of control

Compound: CCOC(=O)c1ccc(NN=NCCF)cc1
- T/C (dose: 75.0 mg/kg/injection, vehicle: distilled water + Tween-80 + alcohol): 114 % of control
- T/C (dose: 150.0 mg/kg/injection, vehicle: distilled water + Tween-80 + alcohol): 160 % of control
- T/C (dose: 300.0 mg/kg/injection, vehicle: distilled water + Tween-80 + alcohol): 63 % of control
